According to PMC6858373 (Scientific Reports, 2019):
Read-outs that look alike come from different tables or passages of the source.

Experiments:
[1] = target: full-length P. pyralis luciferase (Photinus pyralis, UniProt P08659, K549A/L550V/N119G/N50D/S548I); format: cell-based
[2] = target: T1, FGF14:Nav1.6 C-tail complex (Homo sapiens, UniProt Q92915+Q9UQD0); test: Split-luciferase complementation assay (LCA) in Clone V double stable HEK293 cells; format: cell-based; details: for signal-background (S:B) ratio: 50 ng/mL TNF-α vs 0.3% DMSO, n = 16
T1 construct: polymerase chain reaction (PCR) amplification of the FGF14 open reading frame (nt 1–855); C-terminal fragment of Nav1.6 (amino acids 1763–1976) fused with CD4ΔC-tail (amino acids 1–395); expressed in transfected cells
T1 sequence (Q92915 1-252 isoform Q92915-2): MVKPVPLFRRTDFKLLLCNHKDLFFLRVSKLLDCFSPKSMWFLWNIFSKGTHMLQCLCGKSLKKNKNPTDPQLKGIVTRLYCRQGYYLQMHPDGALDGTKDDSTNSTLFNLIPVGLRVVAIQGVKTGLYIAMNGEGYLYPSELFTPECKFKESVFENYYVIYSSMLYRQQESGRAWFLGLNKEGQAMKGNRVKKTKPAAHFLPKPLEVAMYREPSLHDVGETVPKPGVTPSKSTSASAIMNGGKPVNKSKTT
T1 sequence (Q9UQD0 1763-1976 limits assumed): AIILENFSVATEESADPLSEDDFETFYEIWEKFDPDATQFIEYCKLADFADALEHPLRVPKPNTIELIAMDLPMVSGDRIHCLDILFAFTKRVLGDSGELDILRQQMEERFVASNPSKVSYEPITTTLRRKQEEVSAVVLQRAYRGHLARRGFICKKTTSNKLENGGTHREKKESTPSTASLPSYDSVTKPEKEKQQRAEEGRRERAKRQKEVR

[3] = system: Clone V cells
[4] = CC_NCI screening, full-length luciferase counter-screen luminescence, normalized to on-plate 0.3% DMSO controls
[5] = CC_NCI screening, full-length luciferase counter-screen, normalized to on-plate 0.3% DMSO controls
[6] = CC_NCI screening, LCA luminescence, biological replicate Set 1, normalized to on-plate 0.3% DMSO controls (n=16 per plate)
[7] = CC_NCI screening, LCA luminescence, biological replicate Set 2, normalized to on-plate 0.3% DMSO controls (n=16 per plate)
[8] = CC_NCI screening, LCA, biological replicate Set 1, normalized to on-plate 0.3% DMSO controls
[9] = CC_NCI screening, LCA, biological replicate Set 2, normalized to on-plate 0.3% DMSO controls
[10] = CC_NCI screening, average of Set 1 and Set 2, normalized to 0.3% DMSO controls
[11] = CC_NCI screening, normalized to on-plate 0.3% DMSO controls

Sequence of full-length P. pyralis luciferase (P08659 whole entry N50D/N119G/S548I/K549A/L550V, looked up): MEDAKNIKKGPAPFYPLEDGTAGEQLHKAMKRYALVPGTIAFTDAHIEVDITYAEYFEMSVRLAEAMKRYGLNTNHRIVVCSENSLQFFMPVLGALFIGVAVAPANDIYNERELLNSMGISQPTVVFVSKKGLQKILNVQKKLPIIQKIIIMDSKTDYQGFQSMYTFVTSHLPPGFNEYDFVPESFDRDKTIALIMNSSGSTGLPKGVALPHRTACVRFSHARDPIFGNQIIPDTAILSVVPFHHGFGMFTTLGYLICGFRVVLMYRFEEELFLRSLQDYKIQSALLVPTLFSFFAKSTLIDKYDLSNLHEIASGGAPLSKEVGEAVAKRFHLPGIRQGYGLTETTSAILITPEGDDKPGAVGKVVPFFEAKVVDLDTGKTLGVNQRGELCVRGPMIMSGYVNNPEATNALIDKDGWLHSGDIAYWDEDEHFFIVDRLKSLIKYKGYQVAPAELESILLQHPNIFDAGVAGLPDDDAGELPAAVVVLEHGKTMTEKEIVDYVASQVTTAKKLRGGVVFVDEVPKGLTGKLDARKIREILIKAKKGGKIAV

Compound	Toxicity Assay % Fluor ([3]; human, 16 h, 30 µM) [%]	Toxicity Assay Z-score ([3]; human, 16 h, 30 µM)	Luciferase Assay % Lum [1, 4] [%]	Luciferase Assay Z-score [1, 5]	Split Luciferase Assay % Lum Set 1 [2, 6] [%]	Split Luciferase Assay %Lum Set 2 [2, 7] [%]	Split Luciferase Assay Z-score Set 1 [2, 8]	Split Luciferase Assay Z-score Set 2 [2, 9]	Split Luciferase Assay %Lum Avg [2, 10] [%]	further results
TNF-α	–	–	–	–	–	–	–	–	–	% maximal luminescence, full-length luciferase (normalized mean and SD) ([1]; TNF-α 50 ng/mL, 96-well plates): 105.7% ± 2.5%; mean effect relative to that of triciribine [2]: over 2 fold; signal-background (S:B) ratio ([2]; 1 × 10^4 cells per 384-well): 2.05 ± 0.11 X background signal; signal-background (S:B) ratio ([2]; 2 × 10^4 cells per 384-well): 2.26 ± 0.18 X background signal; signal-background (S:B) ratio ([2]; 3 × 10^4 cells per 384-well): 2.60 ± 0.14 X background signal; signal-background (S:B) ratio ([2]; 4 × 10^4 cells per 384-well): 2.12 ± 0.16 X background signal; % luminescence (mean and SD, normalized to DMSO) ([2]; 50 ng/mL TNF-α, Clone V cells, 96-well plates): 210.8% ± 18.6%; cell viability vs untreated cells (CTB fluorescence) [3]: no significant difference in cell viability
C[S+]([O-])c1ccc(-c2nc(-c3ccncc3)c(-c3ccc(F)cc3)[nH]2)cc1 (stereo not shown) [SB 203580, reference compound]	95.56	-0.62	–	–	–	–	–	–	–	Luciferase Assay % Lum [1]: 80.35%; Luciferase Assay Z-score [1]: -2.52; EMax (% Luminescence) [2]: 152.42 % Luminescence; Split Luciferase Assay %Lum Avg [2]: 152.42%; Split Luciferase Assay %Lum Set 2 [2]: 166.45%; Split Luciferase Assay Z-score Set 1 [2]: 3.10; Split Luciferase Assay Z-score Set 2 [2]: 5.41; Z-score (LCA primary screening) [2]: 4.25; dose-dependent behavior in LCA [2]: mild inhibition at lower concentrations (0.5–2 µM) and stimulation at higher concentrations
FC(F)c1nc2ccccc2n1-c1nc(N2CCOCC2)nc(N2CCOCC2)n1 [ZSTK474]	95.63	-0.61	86.44	-1.74	95.99	74.90	-0.32	-2.04	85.45	–
Cc1cc2c(F)c(Oc3ncnn4cc(OC[C@@H](C)O)c(C)c34)ccc2[nH]1 [Brivanib]	92.51	-1.05	64.23	-4.58	34.03	35.37	-5.33	-5.26	34.70	–
Nc1ccccc1NC(=O)c1ccc(CNC(=O)OCc2cccnc2)cc1 [MS-275]	–	–	–	–	–	–	–	–	–	Luciferase Assay % Lum (full-length luciferase counter-screen) [1, 11]: 107.21%; Luciferase Assay Z-score (full-length luciferase counter-screen) [1, 11]: 0.92; Split Luciferase Assay Z-score Set 1 ([2]; CC_NCI screening, biological replicate Set 1, normalized to on-plate 0.3% DMSO controls): -2.96; Split Luciferase Assay % Lum Set 1 ([2]; CC_NCI screening, biological replicate Set 1, normalized to on-plate 0.3% DMSO controls (n=16 per plate)): 63.38%; Split Luciferase Assay Z-score Set 2 ([2]; CC_NCI screening, biological replicate Set 2, normalized to on-plate 0.3% DMSO controls): -2.38; Split Luciferase Assay %Lum Set 2 ([2]; CC_NCI screening, biological replicate Set 2, normalized to on-plate 0.3% DMSO controls (n=16 per plate)): 70.74%; Split Luciferase Assay %Lum Avg ([2]; average of Set 1 and Set 2, normalized to 0.3% DMSO controls): 67.06%; Toxicity Assay % Fluor (CTB cell viability fluorescence) [3]: 101.17%; Toxicity Assay Z-score (CTB cell viability) [3]: 0.16
Nc1nc(Cl)nc2c1ncn2[C@@H]1O[C@H](CO)[C@@H](O)[C@@H]1F [Clofarabine]	94.15	-0.82	–	–	146.00	131.08	3.72	2.53	138.54	Luciferase Assay % Lum [1]: 100.89%; Luciferase Assay Z-score [1]: 0.11
CC(C)(C)c1nc(-c2cccc(NS(=O)(=O)c3c(F)cccc3F)c2F)c(-c2ccnc(N)n2)s1.CS(=O)(=O)O [Dabrafenib mesylate]	–	–	100.50	0.06	126.43	121.72	2.14	1.77	124.07	Toxicity Assay % Fluor [3]: 93.50%; Toxicity Assay Z-score [3]: -0.91
NC(=O)c1ccc(-c2nc(-c3ccc4c(c3)OCO4)c(-c3ccccn3)[nH]2)cc1 [SB 431542]	90.72	-1.30	93.14	-0.88	112.30	114.43	0.99	1.17	113.37	–
